Earlier results, collected in patent US20070148249A1, “Method of preparation of oral solid dosage form with instant release of acting” (priority 2003, published 2007).
Read-outs that look alike come from different tables or passages of the source.

Solubility (in chloroform and lower alcohols): well soluble
Solubility (in water): almost insoluble
Compound: CC(C)(C)NC(=O)[C@H]1CC[C@H]2[C@@H]3CC[C@H]4NC(=O)C=C[C@]4(C)[C@H]3CC[C@]12C [Finasteride, (5α,17β)-N-(1,1-dimethylethyl)-3-oxo-4-azaandrost-1-en-17-carboxamide]
